Measurements from patent EP2582674B1 (Cymabay Therapeutics, Inc., priority 2010, dated 2011).

What was measured:
C57BL/6J mice [1] = experiment: Oral glucose tolerance test; type: in vivo; details: 100 mg/kg oral gavage 30 min before 3g/kg oral glucose, 6 h fasted male C57BL/6J mice, incremental AUC vs vehicle
Procedure: (§1) 8-10 week old male C57BL/6J mice (Harlan) were maintained on regular chow diet from Harlan (2018 Teklad Global). On the day of the experiment mice were fasted for 6 hours, then randomized into groups (n=10-15) to receive the tested GPR120 agonist at doses ranging from 100mg/kg or the vehicle (1% CMC, 2% TWEEN 80). Compounds were delivered orally via gavage at 10mL/kg. Blood glucose levels were measured by glucometer (Ascensia Elite XL, Bayer) at time -30 minutes before administration of compound. Blood glucose was measured again after 30 minutes (at time 0), and then the mice were dosed orally with 3g/kg glucose at 10mL/kg. Blood glucose measurements were taken 20, 40, 60, 90 and 120 minutes after glucose administration, by glucometer (Ascensia Elite XL, Bayer).
(§2) Glucose levels were plotted against time, and the incremental area under the curve (AUC) of the glucose excursion was determined from time 0 using Graphpad Prism 5.01. Outliers were excluded using Tukey's box plot outlier test, and statistical significance of differences in AUC of compound treatment compared to vehicle was determined by non-parametric Kruskal-Wallis test with Dunn's post test.
Tables 2 and 3 below show the mean percentage inhibition of the glucose excursion for the fifteen animals tested in each group. The compounds were tested at 100 mg/kg and the levels of blood glucose were determined in the presence and absence of the tested compounds. The percentage of glucose reduction is reported. The tested compounds were selected as examples from the exemplified compounds. […]

C57BL/6J mice [2] = experiment: Intra peritoneal glucose tolerance test (IPGTT); type: in vivo; details: 30 mg/kg oral gavage 30 min before 2g/kg glucose intra peritoneally, overnight fasted male C57BL/6J mice, incremental AUC of glucose excursion vs vehicle
Procedure: as §1, with “day before” for “day of”, “fasted overnight,” for “fasted for 6 hours,”, “dosed intra peritoneally” for “dosed orally”, “with 2g/kg” for “with 3g/kg”
as §2
The compounds were tested at 30 mg/kg and the levels of blood glucose were determined in the presence and absence of the tested compounds. The percentage of glucose reduction is reported. The tested compounds were selected as Examples from the exemplified compounds. […]

human GPR120 = biological target: T1, human GPR120 (Homo sapiens, UniProt Q5NUL3); experiment: Intracellular Ca2+ assay in human GPR120 stable cell line (FLIPR Calcium 4 dye, Flexstation); type: cell-based; details: HEK293 cells co-expressing Gqi5; for activity at 5 µM: HEK293, % activity at 5 µM compared to the maximal activity of GW9508 at 6.7 µM (=100%), read-out: %Activity (GW9508 Reference Compound)
T1 construct: host or cells: HEK293 cells co-expressing Gqi5
T1 sequence (Q5NUL3 1-361): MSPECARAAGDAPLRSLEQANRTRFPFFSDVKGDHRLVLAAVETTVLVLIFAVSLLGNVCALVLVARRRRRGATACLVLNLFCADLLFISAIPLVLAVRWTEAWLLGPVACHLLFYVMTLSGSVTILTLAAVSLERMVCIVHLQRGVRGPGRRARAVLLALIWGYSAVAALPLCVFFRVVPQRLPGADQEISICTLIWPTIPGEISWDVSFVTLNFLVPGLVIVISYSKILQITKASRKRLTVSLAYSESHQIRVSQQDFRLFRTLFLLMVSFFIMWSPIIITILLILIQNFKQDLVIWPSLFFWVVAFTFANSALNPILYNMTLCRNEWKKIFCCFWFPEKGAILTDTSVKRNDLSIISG

%Activity (GW9508 Reference Compound) (human GPR120; % activity at 5 µM compared to the maximal activity of GW9508 at 6.7 µM (=100%)) [%] | activity at 5 µM (human GPR120) [%] | Compound | % reduction AUC glucose excursion at 100mg/kg (C57BL/6J mice [1]; Table 2) [%] | % reduction IPGTT at 30mg/kg (C57BL/6J mice [2]) [%] | % reduction AUC glucose excursion at 100mg/kg (C57BL/6J mice [1]; Table 3) [%] | inhibition in vivo at 30 mg/kg (C57BL/6J mice [2]; Mus musculus, 2 h, read-out: % reduction IPGTT at 30mg/kg) [%]
106.7955 | – | 3-(4-((5-chloro-2,2-dimethyl-2,3-dihydrobenzofuran-7-yl)methoxy)-3-fluorophenyl)-2-methylpropanoic acid [Example 10] | 58.1 | 30.7 | – | –
– | 60.1 | CC1(C)Cc2cc(Cl)cc(COc3c(F)cc(C4CC4C(=O)O)cc3F)c2O1 (racemic) [Example 35, 2-(4-((5-chloro-2,2-dimethyl-2,3-dihydrobenzofuran-7-yl)methoxy)-3,5-difluorophenyl)cyclopropanecarboxylic acid] | – | – | 27.7 | –
– | 111 | CC(Cc1ccc(OCc2cc(F)cc3c2OC(C)(C)C3)cc1)C(=O)O (centres unmarked) [Example 16, 3-(4-((5-fluoro-2,2-dimethyl-2,3-dihydrobenzofuran-7-yl)methoxy)phenyl)-2-methylpropanoic acid] | – | – | 52.4 | 19.4
